{"source": "patent US20240425490A1", "about": "“SULFAMIDE RIBONUCLEOTIDE REDUCTASE (RNR) INHIBITORS AND USES THEREOF” (Boundless Bio, Inc., priority 2021, published 2024)", "note": "pIC50: −log10 of the molar value.", "data": [{"target": "T1, RNR (RNR1:RNR2 1:1) (Homo sapiens, UniProt P23921)", "T1 sequence (P23921 1-792)": "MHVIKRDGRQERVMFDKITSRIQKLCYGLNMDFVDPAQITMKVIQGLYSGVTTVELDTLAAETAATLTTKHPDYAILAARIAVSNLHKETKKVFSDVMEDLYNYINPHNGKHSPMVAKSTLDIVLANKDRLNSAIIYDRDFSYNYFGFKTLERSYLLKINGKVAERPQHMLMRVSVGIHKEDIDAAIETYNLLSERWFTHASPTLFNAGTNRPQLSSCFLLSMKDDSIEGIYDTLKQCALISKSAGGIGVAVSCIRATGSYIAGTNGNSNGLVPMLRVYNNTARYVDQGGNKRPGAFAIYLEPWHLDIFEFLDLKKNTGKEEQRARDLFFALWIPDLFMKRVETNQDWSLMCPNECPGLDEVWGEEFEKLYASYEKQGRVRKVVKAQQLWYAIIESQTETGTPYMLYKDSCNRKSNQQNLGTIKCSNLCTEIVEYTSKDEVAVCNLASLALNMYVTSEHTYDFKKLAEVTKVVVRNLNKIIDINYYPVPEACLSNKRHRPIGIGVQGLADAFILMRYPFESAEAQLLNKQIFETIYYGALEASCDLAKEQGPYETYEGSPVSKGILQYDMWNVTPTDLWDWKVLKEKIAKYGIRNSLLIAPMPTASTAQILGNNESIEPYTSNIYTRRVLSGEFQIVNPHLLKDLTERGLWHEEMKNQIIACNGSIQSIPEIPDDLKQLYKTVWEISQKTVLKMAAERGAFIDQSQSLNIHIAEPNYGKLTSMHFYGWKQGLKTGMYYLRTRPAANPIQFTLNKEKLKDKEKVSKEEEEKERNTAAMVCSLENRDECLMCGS", "experiment": "RNR enzyme activity, rapid-fire mass spectrometry (RFMS) assay", "assay_type": "biochemical", "details": "RNR 50 nM, CDP 5 μM, ATP 1 mM, 37° C., 45 min, compounds screened up to 50 μM, read-out: RF/MS IC50", "outline": "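Human RNR1:RNR2 (1:1, 50 nM) pre-incubated 15 min at room temperature with compound, then reacted with 5 μM CDP and 1 mM ATP, no NADPH, for 45 min at 37 °C. Stopped with 6% HCOOH; turnover read by rapid-fire mass spectrometry; Triapine and hydroxyurea as reference compounds.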", "values": [{"molecule": "Cc1ccc(F)c([C@@H](C)[C@H](NS(=O)(=O)N2CCC(Oc3ccccn3)CC2)c2n[nH]c(=O)o2)c1C", "note": "[Example 70, N-((1S,2R)-2-(6-fluoro-2,3-dimethylphenyl)-1-(5-oxo-4,5-dihydro-1,3,4-oxadiazol-2-yl)propyl)-4-(pyridin-2-yloxy)piperidine-1-sulfonamide]", "pIC50": "6.00 to 7.00"}, {"molecule": "Cc1ccc(F)c([C@@H](C)[C@H](NS(=O)(=O)N2CCC3(CCCC3)CC2)c2n[nH]c(=O)o2)c1C", "note": "[Example 71, N-((1S,2R)-2-(6-fluoro-2,3-dimethylphenyl)-1-(5-oxo-4,5-dihydro-1,3,4-oxadiazol-2-yl)propyl)-8-azaspiro[4.5]decane-8-sulfonamide]", "pIC50": "6.00 to 7.00"}, {"molecule": "Cc1ccc(F)c([C@H](C)[C@H](NS(=O)(=O)N2CCC3(CCCC3)CC2)c2n[nH]c(=O)o2)c1C", "note": "[Example 72, N-((1S,2S)-2-(6-fluoro-2,3-dimethylphenyl)-1-(5-oxo-4,5-dihydro-1,3,4-oxadiazol-2-yl)propyl)-8-azaspiro[4.5]decane-8-sulfonamide]", "pIC50": "5.00 to 6.00"}, {"molecule": "Cc1ccc(F)c(C(C)[C@H](NS(=O)(=O)N2CCC3(CC2)OCc2ccccc23)c2n[nH]c(=O)o2)c1C", "note": "(stereo partly drawn) [Example 73, N-((1S)-2-(6-fluoro-2,3-dimethylphenyl)-1-(5-oxo-4,5-dihydro-1,3,4-oxadiazol-2-yl)propyl)-3H-spiro[isobenzofuran-1,4′-piperidine]-1′-sulfonamide]", "pIC50": "6.00 to 7.00"}, {"molecule": "Cc1ccc(F)c(C(C)[C@H](NS(=O)(=O)N2CCC(c3noc4ccc(F)cc34)CC2)c2n[nH]c(=O)o2)c1C", "note": "(stereo partly drawn) [Example 74, N-((1S)-2-(6-fluoro-2,3-dimethylphenyl)-1-(5-oxo-4,5-dihydro-1,3,4-oxadiazol-2-yl)propyl)-4-(5-fluorobenzo[d]isoxazol-3-yl)piperidine-1-sulfonamide]", "pIC50": "6.00 to 7.00"}, {"molecule": "Cc1ccc(F)c(C(C)[C@H](NS(=O)(=O)N2CCC(NC(=O)C(C)(C)C)CC2)c2n[nH]c(=O)o2)c1C", "note": "(stereo partly drawn) [Example 75, N-(1-(N-((1S)-2-(6-fluoro-2,3-dimethylphenyl)-1-(5-oxo-4,5-dihydro-1,3,4-oxadiazol-2-yl)propyl)sulfamoyl)piperidin-4-yl)pivalamide]", "pIC50": "5.00 to 6.00"}, {"molecule": "Cc1ccc(F)c([C@@H](C)[C@H](NS(=O)(=O)N2CCC3(CC2)CC(=O)N(C)C3)c2n[nH]c(=O)o2)c1C", "note": "[Example 76, N-((1S,2R)-2-(6-fluoro-2,3-dimethylphenyl)-1-(5-oxo-4,5-dihydro-1,3,4-oxadiazol-2-yl)propyl)-2-methyl-3-oxo-2,8-diazaspiro[4.5]decane-8-sulfonamide]", "pIC50": "6.00 to 7.00"}, {"molecule": "Cc1ccc(F)c([C@H](C)[C@H](NS(=O)(=O)N2CCC3(CC2)CC(=O)N(C)C3)c2n[nH]c(=O)o2)c1C", "note": "[Example 77, N-((1S,2S)-2-(6-fluoro-2,3-dimethylphenyl)-1-(5-oxo-4,5-dihydro-1,3,4-oxadiazol-2-yl)propyl)-2-methyl-3-oxo-2,8-diazaspiro[4.5]decane-8-sulfonamide]", "pIC50": "4.00 to 5.00"}, {"molecule": "COC(=O)C1(C)CCN(S(=O)(=O)N[C@H](c2n[nH]c(=O)o2)[C@H](C)c2c(F)ccc(C)c2C)CC1", "note": "[Example 78, methyl 1-(N-((1S,2R)-2-(6-fluoro-2,3-dimethylphenyl)-1-(5-oxo-4,5-dihydro-1,3,4-oxadiazol-2-yl)propyl)sulfamoyl)-4-methylpiperidine-4-carboxylate]", "pIC50": "6.00 to 7.00"}, {"molecule": "CCCCC1CCN(S(=O)(=O)N[C@H](c2n[nH]c(=O)o2)[C@H](C)c2c(F)ccc(C)c2C)CC1", "note": "[Example 79, 4-butyl-N-((1S,2R)-2-(6-fluoro-2,3-dimethylphenyl)-1-(5-oxo-4,5-dihydro-1,3,4-oxadiazol-2-yl)propyl)piperidine-1-sulfonamide]", "pIC50": "5.00 to 6.00"}, {"molecule": "Cc1ccc(F)c(C(C)[C@H](NS(=O)(=O)N2CCC(N3CCCC3=O)CC2)c2n[nH]c(=O)o2)c1C", "note": "(stereo partly drawn) [Example 80, N-((1S)-2-(6-fluoro-2,3-dimethylphenyl)-1-(5-oxo-4,5-dihydro-1,3,4-oxadiazol-2-yl)propyl)-4-(2-oxopyrrolidin-1-yl)piperidine-1-sulfonamide]", "pIC50": "5.00 to 6.00"}, {"molecule": "Cc1ccc(F)c([C@@H](C)[C@H](NS(=O)(=O)N2CCC(C)(C#N)CC2)c2n[nH]c(=O)o2)c1C", "note": "[Example 81, 4-cyano-N-((1S,2R)-2-(6-fluoro-2,3-dimethylphenyl)-1-(5-oxo-4,5-dihydro-1,3,4-oxadiazol-2-yl)propyl)-4-methylpiperidine-1-sulfonamide]", "pIC50": "6.00 to 7.00"}, {"molecule": "Cc1ccc(F)c([C@H](C)[C@H](NS(=O)(=O)N2CCC(C)(C#N)CC2)c2n[nH]c(=O)o2)c1C", "note": "[Example 82, 4-cyano-N-((1S,2S)-2-(6-fluoro-2,3-dimethylphenyl)-1-(5-oxo-4,5-dihydro-1,3,4-oxadiazol-2-yl)propyl)-4-methylpiperidine-1-sulfonamide]", "pIC50": "5.00 to 6.00"}, {"molecule": "Cc1ccc(F)c([C@@H](C)[C@H](NS(=O)(=O)N2CCC3(CCCN(C)C3)CC2)c2n[nH]c(=O)o2)c1C", "note": "[Example 83, N-((1S,2R)-2-(6-fluoro-2,3-dimethylphenyl)-1-(5-oxo-4,5-dihydro-1,3,4-oxadiazol-2-yl)propyl)-2-methyl-2,9-diazaspiro[5.5]undecane-9-sulfonamide]", "pIC50": "5.00 to 6.00"}, {"molecule": "Cc1ccc(F)c([C@H](C)[C@H](NS(=O)(=O)N2CCC3(CCCN(C)C3)CC2)c2n[nH]c(=O)o2)c1C", "note": "[Example 84, N-((1S,2S)-2-(6-fluoro-2,3-dimethylphenyl)-1-(5-oxo-4,5-dihydro-1,3,4-oxadiazol-2-yl)propyl)-2-methyl-2,9-diazaspiro[5.5]undecane-9-sulfonamide]", "pIC50": "4.00 to 5.00"}, {"molecule": "Cc1ccc(F)c([C@@H](C)[C@H](NS(=O)(=O)N2CCC3(CC2)OCCCO3)c2n[nH]c(=O)o2)c1C", "note": "[Example 85, N-((1S,2R)-2-(6-fluoro-2,3-dimethylphenyl)-1-(5-oxo-4,5-dihydro-1,3,4-oxadiazol-2-yl)propyl)-1,5-dioxa-9-azaspiro[5.5]undecane-9-sulfonamide]", "pIC50": "6.00 to 7.00"}, {"molecule": "Cc1ccc(F)c([C@H](C)[C@H](NS(=O)(=O)N2CCC3(CC2)OCCCO3)c2n[nH]c(=O)o2)c1C", "note": "[Example 86, N-((1S,2S)-2-(6-fluoro-2,3-dimethylphenyl)-1-(5-oxo-4,5-dihydro-1,3,4-oxadiazol-2-yl)propyl)-1,5-dioxa-9-azaspiro[5.5]undecane-9-sulfonamide]", "pIC50": "5.00 to 6.00"}, {"molecule": "Cc1ccc(F)c([C@@H](C)[C@H](NS(=O)(=O)N2CCC3(CCCCC3)CC2)c2n[nH]c(=O)o2)c1C", "note": "[Example 87, N-((1S,2R)-2-(6-fluoro-2,3-dimethylphenyl)-1-(5-oxo-4,5-dihydro-1,3,4-oxadiazol-2-yl)propyl)-3-azaspiro[5.5]undecane-3-sulfonamide]", "pIC50": "6.00 to 7.00"}, {"molecule": "Cc1ccc(F)c([C@H](C)[C@H](NS(=O)(=O)N2CCC3(CCCCC3)CC2)c2n[nH]c(=O)o2)c1C", "note": "[Example 88, N-((1S,2S)-2-(6-fluoro-2,3-dimethylphenyl)-1-(5-oxo-4,5-dihydro-1,3,4-oxadiazol-2-yl)propyl)-3-azaspiro[5.5]undecane-3-sulfonamide]", "pIC50": "5.00 to 6.00"}, {"molecule": "Cc1ccc(F)c(C(C)[C@H](NS(=O)(=O)N2CCC(O)(C(F)(F)F)CC2)c2n[nH]c(=O)o2)c1C", "note": "(stereo partly drawn) [Example 89, N-((1S)-2-(6-fluoro-2,3-dimethylphenyl)-1-(5-oxo-4,5-dihydro-1,3,4-oxadiazol-2-yl)propyl)-4-hydroxy-4-(trifluoromethyl)piperidine-1-sulfonamide]", "pIC50": "6.00 to 7.00"}]}]}
